From patent EP4389132A1 (priority 2021, dated 2023)

How the values were obtained:
[1] = biological target: T1, binding of SARS-CoV-2 to ACE2 (UniProt P0DTC2+Q9BYF1); experiment: COVID-19 Spike-ACE2 Binding Assay Kit (RayBiotech): ACE2 protein binding to S-protein adsorption plate, absorbance at 450 nm; set-up: species or system human
T1 construct: purchased RayBiotech Life, Inc

[2] = system: coronavirus (SARS-CoV-2); experiment: Antiviral test of processed non-woven fabric according to ISO 18184, plaque method; assay type: cell-based; settings: polyethylene terephthalate non-woven fabric immersed in 2% (V/V) aqueous solution, pickup rate 200%, dried at 110°C; control 6.63
[3] = system: influenza A/Kitakyushu/159/93 (H3N2); experiment: Antiviral properties of treated natural rubber glove film, plaque method on MDCK cells; assay type: cell-based, influenza virus; settings: glove immersed in 1% (V/V) aqueous solution for 10 minutes, dried; virus contact 1 hour at room temperature; control 6.78

## O[C@H]1[C@H](O)[C@@H](O)[C@H](O)[C@@H](O)[C@H]1O [Myo-inositol, myo-inositol]
[1]; Concentration 2 % (V/V), relative binding rate, control = 1.00
  Virus binding rate: 1.00
[1]; summary of Table 1
  binding inhibitory effect on the binding of SARS-CoV-2 to ACE2 (in words): no binding inhibitory effect was observed
[2]
  Viral infectivity titer: 2.7 PFU/0.1 mL, Log10
[3]
  Viral infectivity titer: 4.1 PFU/0.1 mL, Log10
